Tests used:
senescent fibroblasts = test: SCFA-mediated CD4+ T cell stimulation assay: T cell-mediated cytotoxicity against senescent fibroblasts; type: cell-based, human; conditions: T cells exposed to 5 mM SCFA for 2 days; 6 h co-culture; T cell to fibroblast ratio 50:1
Experimental: FIGS. 15A-15B. […] (A) The frequency of cleaved caspase-3^+ senescent fibroblasts after co-culture for 6 h with skin T cells, which are preincubated with each 5 mM SCFAs for 2 days, using a skin T cell to fibroblast ratio of 50:1. All data are expressed as the mean±SD. n=3 individuals. (B) The effect of each SCFA (5 mM) treatment on the cytotoxicity of CD4^+ T cells. Flow cytometry analysis of perforin and CD107a expression on CD4^+ T cells exposed to each SCFA for 24 h. n=2 individuals. All data are expressed as the mean±SD.
T cells were seeded at a density of 2.5×10^5 cells into 60 mm dish, and were added to each 5 mM SCFAs, including butylate (EMD Millipore), pentanoate (Ambeed Inc), or propionate (Sigma-Aldrich) with 20 ng/ml human IL-2 recombinant and 20 ng/ml human IL-15 recombinant for 2 days. Following 2 days of co-incubation, T cells were subsequently added to each senescent fibroblasts-placed wells and were cultured in T cell medium with 20 ng/ml human IL-2 recombinant and 20 ng/ml human IL-15 recombinant in 24 well plate (Ratios of 50:1 T cells-to fibroblasts respectively). Following 6 hr of co-incubation, remaining fibroblasts were stained with vimentin and cleaved caspase-3 to examine the frequency of T cell-mediated cytotoxicity against senescent fibroblasts. […]

skin CD4+ T cells = test: Flow cytometry analysis of perforin and CD107a expression on CD4+ T cells exposed to SCFA; type: cell-based, human; conditions: 5 mM SCFA, 24 h
Experimental: FIGS. 15A-15B. Butyrate and pentanoate boost CD4 CTL-mediated clearance of senescent cells. (A) The frequency of cleaved caspase-3^+ senescent fibroblasts after co-culture for 6 h with skin T cells, which are preincubated with each 5 mM SCFAs for 2 days, using a skin T cell to fibroblast ratio of 50:1. All data are expressed as the mean±SD. n=3 individuals. (B) The effect of each SCFA (5 mM) treatment on the cytotoxicity of CD4^+ T cells. Flow cytometry analysis of perforin and CD107a expression on CD4^+ T cells exposed to each SCFA for 24 h. n=2 individuals. All data are expressed as the mean±SD.
Cells were washed once with PBS, including 5% newborn calf serum (Thermo Fisher Scientific, 26010074) and 0.01% sodium azide (Sigma-Aldrich, S2002-100G), and stained with antibodies (Tables 3B and 3B) on ice for 30 min followed by secondary antibody if needed (Table 3A). Following the surface marker staining, cells were fixed and permeabilized for intracellular staining using True-Nuclear Transcription Factor Buffer Set (BioLegend, 424401). Permeabilized cells were stained with antibodies (Table 3A) overnight at 4° C. […] Data were analyzed using FlowJo software (BD Life Sciences, Franklin Lakes, NJ). Relative fluorescence intensity was calculated by subtracting the median fluorescence intensity of isotype control from the median fluorescence intensity of stained samples.

human skin CD4 CTLs = test: Trans-well migration assay; type: cell-based; conditions: recombinant human CXCL9 50 nM (585 ng/mL) in bottom well, 60 min, vs PBS carrier
From the text: FIGS. 6A-6E. CXCL9 promotes the migration of human skin-resident CD4 CTLs. […] The percent cells in each gate are shown on the flow-cytometry plots. Zombie fixable viability dye (Viability) marks dead cells. (B) Representative flow-cytometry plots of CXCR3 expression on CD4^+ and CD8^+ T cells in the human skin. Numbers on the flow-cytometry plots represent the percent cells within each gate. (C) The experimental scheme for trans-well migration assay using the immune cells isolated from the human skin. (D and E) The effect of CXCL9 recombinant protein (585 ng/mL) treatment on the migration of human skin CD4 CTLs (D) and CD8^+ T cells (E). Skin samples from two independent donors were used to isolate skin-resident immune cells (female skin donors). Bar graphs show mean±SD, Mann-Whitney U test.
Skin-isolated cells were seeded at a density of 1.5×10^4 cells/well into the top inserts of the 24-well trans-well plate (Corning, 07-200-149). The pore size is 5 μm. RPMI containing recombinant human CXCL9 (PeproTech, 300-26) or PBS (carrier only) at the concentration of 50 nM was added into the bottom well. Skin-isolated cells were incubated for 60 min. Then, cells were counted and stained as described in the flow cytometry section.

## CCCC(=O)O [butyrate]
Senescent fibroblasts
  apoptosis (cleaved caspase-3+) in senescent fibroblasts by SCFA-exposed skin T cells: highly induced apoptosis
Skin CD4+ T cells
  expression of perforin+ and CD107a+ on CD4+ T cells (cytotoxicity capacity): increase

## CCCCC(=O)O [pentanoate]
Senescent fibroblasts
  apoptosis (cleaved caspase-3+) in senescent fibroblasts by SCFA-exposed skin T cells: highly induced apoptosis
Skin CD4+ T cells
  expression of perforin+ and CD107a+ on CD4+ T cells (cytotoxicity capacity): increase

B1: CXCL9: recombinant human CXCL9 chemokine (PeproTech, 300-26), ligand of CXCR3 (protein, UniProt Q07325 23-125, looked up)
C-X-C motif chemokine 9: TPVVRKGRCSCISTNQGTIHLQSLKDLKQFAPSPSCEKIEIIATLKNGVQTCLNPDSADVKELIKKWEKQVSQKKKQKNGKKHQKKKVLKVRKSQRSRQKKTT
Human skin CD4 CTLs
  migration of human skin CD4 CTLs: significantly induced the migration of CD4 CTLs

— US20260224692A1, “T CELL-DIRECTED ANTI-AGING AND ANTI-CANCER VACCINES AGAINST COMMENSAL CYTOMEGALOVIRUS” (The General Hospital Corporation, priority 2023, published 2026)
